Like-named read-outs stand apart in the source and are kept apart here.
Test: Cytotoxicity assay (AlamarBlue) in mock infected MT-2 cells
Assay type: cell-based
Conditions: human
How it was run: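 MT-2 cells at 2×10^4 cells/well, mock-infected, treated with 3-fold serial compound dilutions for 96 h at 37 °C. AlamarBlue added for 3 h, fluorescence read at 545/590 nm; % inhibition versus solvent control fitted to a 4-parameter logistic to give CC50.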

[1] = mock infected MT-2 cells, 96 hours, AlamarBlue, read-out: CC50

SMILES: COc1cc2c(cc1OCc1ccccc1)CCNC2/C=C/c1ccc(N2CCCCC2)cc1 (stereo not shown) [EA, 6-(benzyloxy)-7-methoxy-1-[(E)-2-[4-(piperidin-1-yl)phenyl]ethenyl]-1,2,3,4-tetrahydroisoquinoline]
- CC50 at 96 h: 4.8 µM

SMILES: COc1cc(C)c(/C=C/C2NCCc3cc(OCc4ccccc4)c(OC)cc32)cc1OCCCC(=O)O (stereo not shown) [BO, 4-{5-[(E)-2-[6-(benzyloxy)-7-methoxy-1,2,3,4-tetrahydroisoquinolin-1-yl]ethenyl]-2-methoxy-4-methylphenoxy}butanoic acid]
- CC50 at 96 h: 8.96 µM

SMILES: COc1cc2c(cc1OCc1ccccc1)CCNC2c1ccccc1CNC(=O)OC(C)(C)C (stereo not shown) [AZ, tert-butyl N-({2-[6-(benzyloxy)-7-methoxy-1,2,3,4-tetrahydroisoquinolin-1-yl]phenyl}methyl)carbamate]
- CC50 at 96 h: 9.48 µM

SMILES: COc1cc2c(cc1OCc1ccccc1)CCNC2/C=C/c1cccc(C(F)(F)F)c1 (stereo not shown) [DB, 6-(benzyloxy)-7-methoxy-1-[(E)-2-[3-(trifluoromethyl)phenyl]ethenyl]-1,2,3,4-tetrahydroisoquinoline]
- CC50 at 96 h: 10 µM

SMILES: COc1cc2c(cc1OCc1ccccc1)CCNC2/C=C/c1ccccc1 (stereo not shown) [BI, 6-(benzyloxy)-7-methoxy-1-[(E)-2-phenylethenyl]-1,2,3,4-tetrahydroisoquinoline]
- CC50 at 96 h: 10 µM

SMILES: COCCCCOc1cc(OC)ccc1/C=C/C1NCCc2cc(OCc3ccccc3)c(OC)cc21 (stereo not shown) [Example AI, (E)-6-(benzyloxy)-7-methoxy-1-(4-methoxy-2-(4-methoxybutoxy)styryl)-1,2,3,4-tetrahydroisoquinoline]
- CC50 at 96 h: 5.6 µM

SMILES: COCCOc1ccccc1/C=C/C1NCCc2cc(OCc3ccccc3)c(OC)cc21 (stereo not shown) [DE, 6-(benzyloxy)-7-methoxy-1-[(E)-2-[2-(2-methoxyethoxy)phenyl]ethenyl]-1,2,3,4-tetrahydroisoquinoline]
- CC50 at 96 h: 10 µM

SMILES: COc1cccc(-c2ncc(/C=C/C3NCCc4cc(OCc5ccccc5)c(OC)cc43)cn2)c1 (stereo not shown) [DN, 6-(benzyloxy)-7-methoxy-1-[(E)-2-[2-(3-methoxyphenyl)pyrimidin-5-yl]ethenyl]-1,2,3,4-tetrahydroisoquinoline]
- CC50 at 96 h: 17.1 µM

SMILES: COc1cc2c(cc1OCc1ccccc1)CCNC2/C=C/c1ccc(-c2ncco2)cc1 (stereo not shown) [ED, 6-(benzyloxy)-7-methoxy-1-[(E)-2-[4-(1,3-oxazol-2-yl)phenyl]ethenyl]-1,2,3,4-tetrahydroisoquinoline]
- CC50 at 96 h: 7.5 µM

SMILES: COC(=O)N1CCc2cc(OCc3ccccc3)c(OC)cc2C1/C=C/c1ccc(OC)c(OCc2ccccc2)c1 (stereo not shown) [Example L, Methyl 6-benzyloxy-1-[(E)-2-(3-benzyloxy-4-methoxy-phenyl)vinyl]-7-methoxy-3,4-dihydro-1H-isoquinoline-2-carboxylate]
- CC50 at 96 h: > 20 µM

SMILES: COc1cc2c(cc1OCc1ccccc1)CCNC2/C=C/c1cc(OC(F)(F)F)ccc1C (stereo not shown) [BH, 6-(benzyloxy)-7-methoxy-1-[(E)-2-[2-methyl-5-(trifluoromethoxy)phenyl]ethenyl]-1,2,3,4-tetrahydroisoquinoline]
- CC50 at 96 h: 5.3 µM

SMILES: COc1ccccc1/C=C/C1NCCc2cc(OCc3ccccc3)c(OC)cc21 (stereo not shown) [DG, 6-(benzyloxy)-7-methoxy-1-[(E)-2-(2-methoxyphenyl)ethenyl]-1,2,3,4-tetrahydroisoquinoline]
- CC50 at 96 h: 9 µM

SMILES: CCOC(=O)c1ccccc1/C=C/C1NCCc2cc(OCc3ccccc3)c(OC)cc21 (stereo not shown) [ET, ethyl 2-[(E)-2-[6-(benzyloxy)-7-methoxy-1,2,3,4-tetrahydroisoquinolin-1-yl]ethenyl]benzoate]
- CC50 at 96 h: 9.9 µM

SMILES: COc1cc(/C=C/C2NCCc3cc(OCc4ccccc4)c(OC)cc32)ccn1 (stereo not shown) [AU, 6-benzyloxy-7-methoxy-1-[(E)-2-(2-methoxy-4-pyridyl)vinyl]-1,2,3,4-tetrahydroisoquinoline]
- CC50 at 96 h [1]: 3.22 µM

SMILES: COc1cc2c(cc1OCc1ccccc1)CCNC2/C=C/c1ccc2c(c1)OCC2 (stereo not shown) [EG, 6-(benzyloxy)-1-[(E)-2-(2,3-dihydro-1-benzofuran-6-yl)ethenyl]-7-methoxy-1,2,3,4-tetrahydroisoquinoline]
- CC50 at 96 h: 19.3 µM

SMILES: COc1cc2c(cc1OCc1ccccc1)CCNC2/C=C/c1ccc2c(c1)CCCO2 (stereo not shown) [CB, 6-(benzyloxy)-1-[(E)-2-(3,4-dihydro-2H-1-benzopyran-6-yl)ethenyl]-7-methoxy-1,2,3,4-tetrahydroisoquinoline]
- CC50 at 96 h: 5.36 µM

SMILES: COc1ccc2cc(/C=C/C3NCCc4cc(OCc5ccccc5)c(OC)cc43)ccc2c1 (stereo not shown) [DI, 6-(benzyloxy)-7-methoxy-1-[(E)-2-(6-methoxynaphthalen-2-yl)ethenyl]-1,2,3,4-tetrahydroisoquinoline]
- CC50 at 96 h: 5.84 µM

SMILES: COc1cc2c(cc1OCc1ccccc1)CCNC2/C=C/c1cc2ccccc2n1C(=O)OC(C)(C)C (stereo not shown) [CH, tert-butyl 2-[(E)-2-[6-(benzyloxy)-7-methoxy-1,2,3,4-tetrahydroisoquinolin-1-yl]ethenyl]-1H-indole-1-carboxylate]
- CC50 at 96 h: 3.48 µM

SMILES: CCOC(=O)c1coc(-c2ccc(/C=C/C3NCCc4cc(OCc5ccccc5)c(OC)cc43)cc2)n1 (stereo not shown) [EE, ethyl 2-{4-[(E)-2-[6-(benzyloxy)-7-methoxy-1,2,3,4-tetrahydroisoquinolin-1-yl]ethenyl]phenyl}-1,3-oxazole-4-carboxylate]
- CC50 at 96 h: 5.9 µM

SMILES: COc1ccc(/C=C/C2NCCc3cc(OCc4ccccc4)c(OC)cc32)cc1COCC(F)(F)F (stereo not shown) [EO, 6-(benzyloxy)-7-methoxy-1-[(E)-2-{4-methoxy-3-[(2,2,2-trifluoroethoxy)methyl]phenyl}ethenyl]-1,2,3,4-tetrahydroisoquinoline]
- CC50 at 96 h: 1.94 µM

SMILES: COc1cc2c(cc1OCc1ccccc1)CCNC2/C=C/c1cc(C)c(OC)c(C(F)(F)F)c1 (stereo not shown) [CZ, 6-(benzyloxy)-7-methoxy-1-[(E)-2-[4-methoxy-3-methyl-5-(trifluoromethyl)phenyl]ethenyl]-1,2,3,4-tetrahydroisoquinoline]
- CC50 at 96 h: 4 µM

SMILES: COc1cc(/C=C/C2NCCc3cc(OCc4ccccc4)c(OC)cc32)cc(OC)c1 (stereo not shown) [AT, 6-(benzyloxy)-1-[(E)-2-(3,5-dimethoxyphenyl)ethenyl]-7-methoxy-1,2,3,4-tetrahydroisoquinoline]
- CC50 at 96 h: 4.85 µM

SMILES: COc1cc(C)c(/C=C/C2c3cc(OC)c(OCc4ccccc4)cc3CCN2C(=O)c2ccncc2)cc1OCc1ccccc1 (stereo not shown) [Example U, [6-benzyloxy-1-[(E)-2-(5-benzyloxy-4-methoxy-2-methyl-phenyl)vinyl]-7-methoxy-3,4-dihydro-1H-isoquinolin-2-yl]-(4-pyridyl)methanone]
- CC50 at 96 h: > 100 µM

SMILES: COc1cc2c(cc1OCc1ccccc1)CCNC2/C=C/c1ccncc1 (stereo not shown) [AW, 6-(benzyloxy)-7-methoxy-1-[(E)-2-(pyridin-4-yl)ethenyl]-1,2,3,4-tetrahydroisoquinoline]
- CC50 at 96 h [1]: 11.4 µM

SMILES: CCOC(=O)CCCOc1cc(/C=C/C2NCCc3cc(OCc4ccccc4)c(OC)cc32)ccc1OC (stereo not shown) [CV, ethyl 4-{5-[(E)-2-[6-(benzyloxy)-7-methoxy-1,2,3,4-tetrahydroisoquinolin-1-yl]ethenyl]-2-methoxyphenoxy}butanoate]
- CC50 at 96 h: 2.7 µM

SMILES: COc1cc2c(cc1OC)C(/C=C/c1cc(OCc3ccccc3)c(OC)cc1C)NCC2 (stereo not shown) [Example C, 1-[(E)-2-(5-Benzyloxy-4-methoxy-2-methyl-phenyl)vinyl]-6,7-dimethoxy-1,2,3,4-tetrahydroisoquinoline]
- CC50 at 96 h: 11 µM

SMILES: COc1cc2c(cc1OCc1ccccc1)CCNC2/C=C/c1cc2c(cc1C)OCO2 (stereo not shown) [BB, 6-(benzyloxy)-7-methoxy-1-[(E)-2-(6-methyl-2H-1,3-benzodioxol-5-yl)ethenyl]-1,2,3,4-tetrahydroisoquinoline]
- CC50 at 96 h: 2.98 µM

SMILES: COc1cc2c(cc1OCc1ccccc1)CCNC2/C=C/c1ccc2c(c1)CCO2 (stereo not shown) [BM, 6-(benzyloxy)-1-[(E)-2-(2,3-dihydro-1-benzofuran-5-yl)ethenyl]-7-methoxy-1,2,3,4-tetrahydroisoquinoline]
- CC50 at 96 h: 20.4 µM

SMILES: COc1cc2c(cc1OCc1ccccc1)CCNC2/C=C/c1cccc(-c2ncco2)c1 (stereo not shown) [EC, 6-(benzyloxy)-7-methoxy-1-[(E)-2-[3-(1,3-oxazol-2-yl)phenyl]ethenyl]-1,2,3,4-tetrahydroisoquinoline]
- CC50 at 96 h: 7.5 µM

SMILES: COc1cc2c(cc1OCc1ccccc1)CCNC2/C=C/c1cccc(C(=O)O)c1 (stereo not shown) [ER, 3-[(E)-2-[6-(benzyloxy)-7-methoxy-1,2,3,4-tetrahydroisoquinolin-1-yl]ethenyl]benzoic acid]
- CC50 at 96 h: 10 µM

SMILES: COc1ccc(/C=C/C2NCCc3cc(OCc4ccccc4)c(OC)cc32)cc1OC (stereo not shown) [BQ, 6-(benzyloxy)-1-[(E)-2-(3,4-dimethoxyphenyl)ethenyl]-7-methoxy-1,2,3,4-tetrahydroisoquinoline]
- CC50 at 96 h: 8.7 µM

SMILES: COc1cc2c(cc1OCc1ccccc1)CCNC2/C=C/c1ccccc1N1CCOCC1 (stereo not shown) [DH, 6-(benzyloxy)-7-methoxy-1-[(E)-2-[2-(morpholin-4-yl)phenyl]ethenyl]-1,2,3,4-tetrahydroisoquinoline]
- CC50 at 96 h: 17.8 µM

SMILES: COc1ccc(/C=C/C2NCCc3cc(OCc4ccccc4)c(OC)cc32)c(OC)n1 (stereo not shown) [CA, 6-(benzyloxy)-1-[(E)-2-(2,6-dimethoxypyridin-3-yl)ethenyl]-7-methoxy-1,2,3,4-tetrahydroisoquinoline]
- CC50 at 96 h: 15.3 µM

SMILES: COc1cc(C)c(/C=C/C2NCCc3cc(OCc4ccccc4)c(OC)cc32)c(C)c1 (stereo not shown) [BA, 6-(benzyloxy)-7-methoxy-1-[(E)-2-(4-methoxy-2,6-dimethylphenyl)ethenyl]-1,2,3,4-tetrahydroisoquinoline]
- CC50 at 96 h: 3.33 µM

SMILES: COc1cc2c(cc1OCc1ccccc1)CCNC2/C=C/c1ccccc1N(C)C (stereo not shown) [DC, 2-[(E)-2-[6-(benzyloxy)-7-methoxy-1,2,3,4-tetrahydroisoquinolin-1-yl]ethenyl]-N,N-dimethylaniline]
- CC50 at 96 h: 10 µM

SMILES: COc1cc(C)c(/C=C/C2NCCc3cc(OCc4ccccc4)c(OC)cc32)cc1C (stereo not shown) [BV, 6-(benzyloxy)-7-methoxy-1-[(E)-2-(4-methoxy-2,5-dimethylphenyl)ethenyl]-1,2,3,4-tetrahydroisoquinoline]
- CC50 at 96 h: 2.63 µM

SMILES: COc1cc(C)c(/C=C/C2NCCc3cc(OCc4ccccc4)c(OC)cc32)cc1OC (stereo not shown) [Example AH, 6-benzyloxy-1-[(E)-2-(4,5-dimethoxy-2-methyl-phenyl)vinyl]-7-methoxy-1,2,3,4-tetrahydroisoquinoline]
- CC50 at 96 h: 2.4 µM
